One molecule from PMC3493512, “Structures of SHV-1 β-Lactamase with Penem and Penam Sulfone Inhibitors That Form Cyclic Intermediates Stabilized by Carbonyl Conjugation” (PLoS ONE, 2012) can be followed below.

The assay concerns the target T1, SHV-1 β-lactamase (Klebsiella pneumoniae, UniProt P0AD64).
T1 construct: gene bla
In words: X-ray crystal structure at […] Å (soak); Ki by direct competition kinetics. The assay is classed as biochemical.

In general, Ki refers to a measure of affinity in units of concentration, obtained from inhibition or displacement.

The structures appear in SMILES notation.

T1 sequence (P0AD64 22-286): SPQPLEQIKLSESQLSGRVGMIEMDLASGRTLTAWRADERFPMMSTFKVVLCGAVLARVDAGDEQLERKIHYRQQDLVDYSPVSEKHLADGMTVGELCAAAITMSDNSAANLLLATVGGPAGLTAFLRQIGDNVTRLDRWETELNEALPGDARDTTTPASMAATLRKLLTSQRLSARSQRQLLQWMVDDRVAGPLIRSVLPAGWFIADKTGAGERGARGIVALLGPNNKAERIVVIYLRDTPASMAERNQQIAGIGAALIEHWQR

As to `C[C@]1(COC(=O)Cc2ccccc2)[C@H](C(=O)O)N2C(=O)/C(=C/c3ccccn3)[C@H]2S1(=O)=O` [SA1-204], the Ki came to 42 ± 4 nM.
